Experiment: Fatty acid composition in the livers of rats fed DHA-containing oil (Example 2)
Format: in vivo, Wistar rats
Conditions: rat liver, versus control group
Excerpt: Four-week-old male Wistar rats were initially raised for one week, and then divided into 2 groups described below.
perilla oil: safflower oil=7:3
rapeseed oil: DHA ethyl ester=3:2
For 4 weeks, the rats were fed experimental diets prepared by mixing 5% of the indicated oils for each of the groups to the basal feed.
The livers were excised from the raised rats of both groups, and lipids were extracted by the Folch method and upon conversion to the methyl ester, the amount of each fatty acid was analyzed by gas chromatography.

**Q.** With `CCC=CCC=CCC=CCC=CCC=CCC=CCCC(=O)O` [DHA, 4,7, 10, 13, 16, 19-docosahexaenoic acid] as the molecule, how does the “effect on the proportion of ARA in the liver (in words)” value read?
**A.** significant decrease in the proportion of ARA
